Here are results for 71 compounds from PubChem BioAssay AID179 (DTP/NCI, 2004).

The structures appear in SMILES notation. Calls of active or inactive are those of the source.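 How the source made its calls: active means compounds giving half or more protection of infected cells from virus-caused growth loss, again on retest; inactive means the rest.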 Some results are limits rather than exact numbers.

The subject of this test is CEM cells HIV-1 protection, formazan growth assay. The test is described as follows: NCI AIDS Antiviral Assay. As to conditions: for IC50: measured here: growth of uninfected CEM cells. The method, boiled down:
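Five concentrations of each compound were applied to infected and uninfected human CEM cells. Protection from HIV-1 was judged from growth measured with a soluble formazan assay.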

For `CC(C)(C)C1CCC2c3c([nH]c4ncccc34)C3C(=O)N(c4ccccc4)C(=O)C3C2C1` (centres undefined), the EC50 was greater than 1.78 µM and the IC50 is greater than 1.78 µM.

Turning to `Cc1cn(C2C(CO)C(CO)C2(F)F)c(=O)[nH]c1=O` (centres undefined), the EC50 was greater than 200 µM and the IC50 is greater than 200 µM.

For `CC12C(C(=O)O)C(=O)C(C(=O)O)C1(C)C(C(=O)O)C(=O)C2C(=O)O` (centres undefined), the EC50 was greater than 525 µM and the half-maximal inhibitory concentration (IC50) worked out at 398 µM.

In the case of `C1=Nc2ccc(cc2)-c2ccc(cc2)N=Cc2ccccc2OCc2cccc(n2)COc2ccccc21`, the EC50 was greater than 200 µM and the IC50 is greater than 200 µM.

Regarding `CC1=[N+]([O-])C(C)(C)N(N=O)C1(C)C`, the EC50 is greater than 200 µM and the IC50 was greater than 200 µM.

For the compound `C=CCOCC1C2CCC3(OCCO3)C21` (centres undefined), the EC50 is greater than 200 µM and the IC50 is 148 µM.

Regarding `O=c1cc2ccccc2nn1Cc1ccccc1`, the EC50 is greater than 21.9 µM and the IC50 is greater than 21.9 µM.

As to `CCOC(=O)c1nc2ccc(C(F)(F)F)cc2[nH]c1=O`, the EC50 is greater than 200 µM and the IC50 is greater than 200 µM.

In the case of `CCOC(=O)CCN1C(=O)c2c(NC(=O)C(=O)O)cccc2S1(=O)=O`, the EC50 is greater than 200 µM and the IC50 is greater than 200 µM.

Consider `COc1cc2c(cc1OC)C1C(=O)c3c(O)cc4c(c3OC1CO2)C=CC(C)(C)O4` (centres undefined), for which the EC50 is greater than 1.82 µM and the IC50 came to 0.891 µM.

For the compound `O=C(Cc1ccccc1)NNc1nc(NNC(=O)c2ccncc2)nc(Nc2ccc(Cl)cc2)n1`, the EC50 was greater than 100 µM and the IC50 was greater than 100 µM.

`COc1cc(C)cc2c(-c3c(O)cc(O)c4c3C[C@H](C)N[C@H]4C)cc(-c3cc(-c4c(O)cc(O)c5c4C[C@H](C)N[C@H]5C)c4cc(C)cc(OC)c4c3O)c(O)c12`: the EC50 was 14.1 µM and the IC50 is 95.5 µM.

With `CC1(C)CN=C(Nc2ccc(F)c(Cl)c2)S1`, the EC50 was greater than 200 µM and the 50% inhibitory concentration (IC50) was greater than 200 µM.

Regarding `O=C1CCC(c2ccccc2)(C2(c3ccccc3)CCC(=O)O2)O1` (centres undefined), the EC50 is greater than 200 µM and the half-maximal inhibitory concentration (IC50) is 151 µM.

Regarding `COc1ccccc1N1C(=O)/C(=C/c2ccc(N(CCC#N)CCC#N)cc2C)N=C1c1cc([N+](=O)[O-])ccc1Cl`, the result was inactive.

For `CN(C)c1ccc(-c2nn(C)c3nc(=O)n(C)c(=O)c-3[n+]2[O-])cc1`, the EC50 is greater than 200 µM and the IC50 amounted to 0.562 µM.

As for `CCN(CC)C1=C(N(CC)CC)C(N(CC)CC)=C(N(CC)CC)C1=O.[C-]#[O+].[C-]#[O+].[C-]#[O+].[Fe]`, the EC50 was greater than 2.88 µM and the IC50 was greater than 2.88 µM.

On to `Oc1[nH]c2ccccc2c1N=NC(=S)N1CCCCC1`, for which the EC50 is greater than 200 µM and the IC50 came to 1.02 µM.

As for `O=P(O)(O)C(N=C(Nc1ccccc1)Nc1ccccc1)P(=O)(O)O`, the EC50 was greater than 100 µM and the IC50 is greater than 100 µM.

`CCCCCC1C2C(=O)NC(=O)C1C(=O)NC2=O` (centres undefined): the EC50 is greater than 1000 µM and the IC50 is greater than 1000 µM.

Turning to `O=[N+]([O-])c1ccc(C2OCC3CSCN32)cc1` (centres undefined), the EC50 was greater than 39.8 µM and the IC50 is greater than 39.8 µM.

Take `Fc1cccc(C2SCc3nc4ccccc4n32)c1F` (centres undefined): the result was inactive.

On to `CCOP(=O)(OCC)/C(C#N)=C/c1ccccc1Cl`, for which the outcome was inactive.

For `CC(C)=CCC[C@@H](C)c1c(O)c(O)c(C)c2nc3ccccc3nc12`, the EC50 was greater than 200 µM and the IC50 turned out to be 5.89 µM.

Turning to `O=[N+]([O-])c1cccc(S(=O)(=O)c2cccc([N+](=O)[O-])c2)c1`, the EC50 is greater than 200 µM and the IC50 is greater than 200 µM.

Consider `CCOC(=O)CCC(=O)C1c2cccc(O)c2C(=O)c2c(O)cccc21`, for which the EC50 is greater than 28.2 µM and the IC50 stood at 4.9 µM.

For `COc1ccc(-c2onc3ccc(Br)cc23)cc1`, the EC50 was greater than 23.4 µM and the IC50 was greater than 23.4 µM.

For the compound `CCOC(=O)CCN1C(=O)C(=O)N(c2ccc(OC)cc2)C1=S`, the EC50 was greater than 200 µM and the 50% inhibitory concentration (IC50) turned out to be 31.6 µM.

Turning to `N#Cc1ccc(-n2cccc2)cc1`, the EC50 was greater than 200 µM and the IC50 was greater than 200 µM.

Regarding `COC(=O)NC12CC3CC(C(C)O1)C2N(Cc1ccccc1)C3` (centres undefined), the EC50 is greater than 200 µM and the IC50 is greater than 200 µM.

Regarding `COc1ccc(-c2cc(-c3ccccc3)n(C3OC(COC(C)=O)C(OC(C)=O)C(OC(C)=O)C3OC(C)=O)c(=S)c2C#N)cc1` (centres undefined), the EC50 is greater than 166 µM and the half-maximal inhibitory concentration (IC50) amounted to 32.4 µM.

Turning to `CC(C)(C)[Si](C)(C)OCC1OC(n2ccc(=O)[nH]c2=O)C(O[Si](C)(C)C(C)(C)C)C1CCN(O)CC1OC(n2ccc(=O)[nH]c2=O)C(O[Si](C)(C)C(C)(C)C)C1O[Si](C)(C)C(C)(C)C` (centres undefined), the EC50 was greater than 100 µM and the IC50 was greater than 100 µM.

Take `COc1ccc(/C=C2\CN(C)C/C(=C\c3ccc(OC)cc3)C2=O)cc1`: the EC50 is greater than 200 µM and the concentration for half-maximal inhibition (IC50) was determined as 85.1 µM.

Take `C/C(=C\C(=O)Nc1ccc2n[nH]nc2c1)Nc1ccc2n[nH]nc2c1`: the result was inactive.

For the compound `COC(O)C(=O)c1c2c(cc3c1CCC3)CCCC2` (centres undefined), the EC50 was greater than 200 µM and the IC50 turned out to be 6.17 µM.

Consider `CCCc1cc(=O)oc2c3c(c4c(c12)OC(C)(C)CC4)O[C@H](C)C(C)[C@@H]3O` (some centres undefined), for which the EC50 is greater than 200 µM and the IC50 is 162 µM.

On to `CC1(C)OC2C(=O)O[C@H](CO)C2O1` (some centres undefined), for which the EC50 was greater than 200 µM and the IC50 is greater than 200 µM.

Take `CCOC(=O)N1CCC2(CC1)CC(=O)N(Nc1ccccc1)C2=O`: the EC50 was greater than 200 µM and the IC50 is 36.3 µM.

As to `Cc1nc2c(C#N)c3n(c2c(=O)o1)CCCC3`, the EC50 was greater than 200 µM and the IC50 was greater than 200 µM.

On to `CN1N(c2ccccc2)C(=O)C2=NC=C(C(=O)c3ccc(Cl)cc3)C(=N)C21C` (centres undefined), for which the EC50 is greater than 200 µM and the IC50 is greater than 200 µM.

Consider `Nn1c(CCCCCCCCc2nnc(COc3ccc4ccccc4c3O)n2N)nnc1COc1ccc2ccccc2c1O`, for which the EC50 is greater than 200 µM and the IC50 worked out at 2.45 µM.

On to `Cc1ccc(NC(=O)C(=O)C(C2C(C)CC(=O)C2CC(=O)O)[N+](=O)[O-])cc1` (centres undefined), for which the outcome was inactive.

For `C=CCSCCCC#Cc1ccccc1C(=O)OC`, the EC50 was greater than 200 µM and the IC50 came out at 151 µM.

As to `Cc1cccc(NC(=O)c2cc3cc(N=Nc4ccc(Br)cc4)ccc3oc2=O)c1`, the result was inactive.

As for `CC(C)N(C(=O)C1(C)CC1)C(C)C`, the EC50 was greater than 1350 µM and the half-inhibitory concentration (IC50) was greater than 1350 µM.

With `O=C(/C=C/c1cccc([N+](=O)[O-])c1)c1ccccc1`, the EC50 is greater than 20.4 µM and the IC50 stood at 11.5 µM.

Turning to `CC(C)(C)OC(=O)NCC(=O)NC1CC=CCC1NC(=O)CNC(=O)OC(C)(C)C` (centres undefined), the EC50 was greater than 200 µM and the IC50 was greater than 200 µM.

For the compound `Cc1ccc(C)c2c1OC(=O)C1CNCOC21` (centres undefined), the EC50 is greater than 50.1 µM and the IC50 is greater than 50.1 µM.

With `CCOC(=O)c1oc2c(OC)ccc3c2c1CCC3`, the result was inactive.

Turning to `NC(=O)N/N=C1\CCCc2ccccc21`, the EC50 was greater than 178 µM and the IC50 was greater than 178 µM.

Turning to `C[C@@H]1O[C@@H](O[C@H]2CC[C@]3(C=O)[C@H]4CC[C@]5(C)[C@@H](c6ccc(=O)oc6)CC[C@]5(O)[C@@H]4CC[C@]3(O)C2)[C@H](O)[C@H](O)[C@H]1O[C@@H]1O[C@H](CO)[C@@H](O)[C@H](O)[C@H]1O`, the EC50 is greater than 0.2 µM and the IC50 stood at 0.0038 µM.

For `COc1ccc(/C=N/Nc2nnc3c4ccccc4n(C)c3n2)cc1`, the EC50 was greater than 200 µM and the IC50 was greater than 200 µM.

Take `CC1=CO[C@@H]2O[C@@]3(C)CC[C@H]4[C@H](C)CC[C@@H]1[C@@]24OO3`: the EC50 is greater than 200 µM and the IC50 turned out to be 178 µM.

As to `CSc1nc2nc(C(O)C(O)C(O)CO)cnc2c(=O)[nH]1` (centres undefined), the result was inactive.

With `O=C1OC(c2ccccc2)=C2CCC3CCCCN1C23` (centres undefined), the EC50 is greater than 132 µM and the IC50 was greater than 132 µM.

Regarding `C1CCN(C2OC3C(COC3N3CCCCC3)OC2OC2CCO[C@@H]2N2CCCCC2)CC1` (some centres undefined), the EC50 was greater than 38.9 µM and the IC50 amounted to 3.39 µM.

`CC(C)(NO)/C(=N\O)c1ccccc1`: the EC50 is greater than 200 µM and the IC50 is greater than 200 µM.

For `Nc1nc(N)c2ncn(C3OC(CO)CC3F)c2n1` (centres undefined), the EC50 is 34.7 µM and the IC50 turned out to be 93.3 µM.

For the compound `COc1ccc(C2=NNC(=O)CC2)cc1OC`, the EC50 is greater than 1070 µM and the IC50 is 550 µM.

Regarding `Cc1cc(-c2c(O)c3ccc4ccccc4c3oc2=O)no1`, the EC50 was greater than 20 µM and the IC50 is greater than 20 µM.

Turning to `CCOC(=O)c1cc2c([nH]1)C(=O)CSC1=C2CCN1Cc1ccccc1`, the EC50 was greater than 50.1 µM and the IC50 was 21.9 µM.

Turning to `O=C1C[C@@H]2OC3=C(C(=O)CCC3)[C@@H]2O1`, the EC50 was greater than 1290 µM and the IC50 was 7.24 µM.

As to `O=S(Cc1cc2c(cc1-c1ccccc1)OCO2)c1ccccc1` (centres undefined), the EC50 is greater than 269 µM and the IC50 was determined as 9.55 µM.

`Cc1ccc(/C=N/Nc2nc3ccccc3s2)s1`: the EC50 is greater than 200 µM and the IC50 turned out to be 67.6 µM.

`CCOP(=S)(N/N=C1/C2(C)CCC(C2)C1(C)C)OCC` (centres undefined): the EC50 is greater than 200 µM and the IC50 is 20 µM.

With `Fc1cccc(F)c1C1SCc2nc3ccc(Cl)cc3n21` (centres undefined), the EC50 was 4.07 µM and the IC50 is greater than 200 µM.

In the case of `COC(=O)/C(C#N)=C(\Nc1ccccc1)N1CCCC1`, the EC50 was greater than 200 µM and the IC50 came to 138 µM.

For `NC(N)=NNC(=O)CCCCCCCC(=O)NN=C(N)N`, the EC50 was 537 µM and the IC50 is 676 µM.

`[O-]/[N+](=C\c1ccccc1)[C@H](COCc1ccccc1)c1ccccc1`: the EC50 is greater than 77.6 µM and the IC50 is greater than 77.6 µM.

Regarding `CC(C)C1=C[C@@]23CCC4C(C)(C)CCC[C@]4(C(=O)O2)C3=CC1=O` (some centres undefined), the EC50 is greater than 43.7 µM and the IC50 was greater than 43.7 µM.

As to `CSc1c(C#N)c(O)n(-c2ccc(Cl)cc2)c(=O)c1C#N`, the EC50 is greater than 200 µM and the IC50 is 33.1 µM.

For orientation: EC50 means the concentration needed to bring the measured effect to its halfway point. As a reminder, the IC50 is the concentration that gives 50% inhibition. Low readings indicate greater potency in that assay, high ones weaker potency in that assay.
